For 50 molecules, IC50 results are on record in patent US9567339B2, “Primary carboxamides as BTK inhibitors” (AbbVie Inc., priority 2013, dated 2017).

BTK, recombinant human catalytic domain (aa 393-659), sequence (Q06187 393-659): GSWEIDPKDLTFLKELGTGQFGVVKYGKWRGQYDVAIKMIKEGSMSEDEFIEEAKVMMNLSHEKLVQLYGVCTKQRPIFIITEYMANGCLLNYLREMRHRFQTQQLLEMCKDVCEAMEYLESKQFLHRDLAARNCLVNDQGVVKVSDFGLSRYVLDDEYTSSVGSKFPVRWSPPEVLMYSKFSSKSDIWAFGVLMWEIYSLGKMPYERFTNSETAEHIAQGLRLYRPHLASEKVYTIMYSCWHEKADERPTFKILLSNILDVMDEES

One assay concerns the target BTK, recombinant human catalytic domain (aa 393-659) (Homo sapiens (Human), UniProt Q06187). Put plainly: In vitro BTK kinase activity measured by time-resolved fluorescence resonance energy transfer (trFRET). Conditions: read-out: Btk IC50. The assay is classed as biochemical.
Take `Cc1c(NC(=O)c2nccs2)cccc1-c1ccc(C(N)=O)c2[nH]c(-c3ccccc3CNC(=O)CCl)cc12` [E.4.1]: the IC50 was in the range of 100 to 1000 nM.
On to `C=CC(=O)Nc1cc(-c2ccc(C(N)=O)c3[nH]ccc23)ccc1C` [E.1.25], for which the IC50 is less than 100 nM.
The same measure, in the same setting: next, `C=CC(=O)N1CC(N(C)c2ccc(C(N)=O)c3[nH]c(-c4ccc5c(c4)OCCC5)cc23)C1` [E.9.12]: less than 100 nM; `C=CC(=O)Nc1cccc(-c2ncc(C(N)=O)c3[nH]ccc23)c1C` [E.1.9]: less than 100 nM.
Still for that read-out and setting: the result for `C=C(CNC)C(=O)Nc1cccc(-c2ccc(C(N)=O)c3[nH]ccc23)c1` [G.1.3] reads less than 100 nM.
On the same count and under the same terms, the result for `Cc1nc(C(=O)NC2CCCN(c3ccc(C(N)=O)c4[nH]c(C5=CCN(S(C)(=O)=O)CC5)cc34)C2)co1` (centres unmarked) [O.1.5*] reads less than 100 nM; that for `C=CC(=O)N1CC(N(C)c2ccc(C(N)=O)c3[nH]c(C4CCS(=O)(=O)CC4)cc23)C1` [E.9.19], less than 100 nM.
Consider `Cc1ccc(-c2cc3c(-c4ccccn4)ccc(C(N)=O)c3[nH]2)cc1` [U.1.3], for which the half-inhibitory concentration (IC50) is 100 to 1000 nM.
With `Cc1c(NC(=O)CCN2CCN(C)CC2)cccc1-c1ccc(C(N)=O)c2[nH]c(C3=CCN(S(C)(=O)=O)CC3)cc12` [D.7.27], the half-maximal inhibitory concentration (IC50) was less than 100 nM.
Same read-out and setting: the result for `Cc1c(NC(=O)/C=C/CN2CCOCC2)cccc1-c1ccc(C(N)=O)c2[nH]ccc12` [J.1.5] reads 1000 to 10000 nM.
Still for that read-out and setting: the result for `Cc1c(NC(=O)C(C)C)cccc1-c1ccc(C(N)=O)c2[nH]c(C3=CCN(S(C)(=O)=O)CC3)cc12` [D.7.40] reads less than 100 nM; that for `Cc1c(NC(=O)c2cnsc2)cccc1-c1ccc(C(N)=O)c2[nH]c(C3=CCN(S(C)(=O)=O)CC3)cc12` [D.7.38], less than 100 nM; that for `C=CC(=O)N1CC[C@H](c2ccc(C(N)=O)c3[nH]c(-c4cc5n(n4)CCOC5)cc23)C1` [E.9.26], less than 100 nM.
The same measure, in the same setting: the result for `C=CC(=O)N1CC(N(C)c2ccc(C(N)=O)c3[nH]c(C4(O)COC4)cc23)C1` [E.9.1.1] reads 100 to 1000 nM; that for `C=CC(=O)Nc1ccccc1-c1ccc(C(N)=O)c2[nH]ccc12` [E.1.2], 1000 to 10000 nM; that for `C=CC(=O)Nc1cc(-c2ccc(C(N)=O)c3[nH]ccc23)ccc1F` [E.1.23], less than 100 nM.
Regarding `C=CC(=O)N1CC(N(C)c2ccc(C(N)=O)c3[nH]c(C4CC4)cc23)C1` [E.9.2], the half-inhibitory concentration (IC50) was less than 100 nM.
As for `Cc1ccc(-c2cc3c(-c4nccs4)ccc(C(N)=O)c3[nH]2)cc1` [U.1.2], the IC50 is less than 100 nM.
With `C=CC(=O)N1CCOC[C@H](c2ncc(C(N)=O)c3[nH]ccc23)C1` [E.9.31], the IC50 fell in the range of 1000 to 10000 nM.
Same read-out and setting: the result for `Cn1cc(-c2cc3c(-c4cccc(-n5cnc6ccc(F)cc6c5=O)c4CO)ccc(C(N)=O)c3[nH]2)cn1` [M.1.1] reads less than 100 nM; that for `C=CC(=O)Nc1cc(-c2ccc(C(N)=O)c3[nH]ccc23)ccc1OC` [E.1.8], 100 to 1000 nM.

The assay is the same for the next values; noted with them: trFRET, 0.001 mM ATP, biotin-TYR1 peptide substrate; read-out: Btk IC50.
As to `Cc1c(NC2COC2)cccc1-c1ccc(C(N)=O)c2[nH]c(C3=CCN(S(C)(=O)=O)CC3)cc12` [A.4.11], the concentration for half-maximal inhibition (IC50) was less than 100 nM.
The same measure, in the same setting: the result for `Cc1ccc(-c2cc3c(-c4ccncc4)ccc(C(N)=O)c3[nH]2)cc1` [A.8.4] reads 100 to 1000 nM; that for `C=CC(=O)Nc1cccc(-c2ccc(C(N)=O)c3[nH]c(-c4ccc(F)cc4)cc23)c1C` [A.1.32], less than 100 nM.
Same read-out and setting: next, `Cc1c(-c2ccc(C(N)=O)c3[nH]c(-c4cnn(C[C@@H](O)CO)c4)cc23)cccc1-n1cnc2ccccc2c1=O` [K.1]: less than 100 nM.
For the molecule `CS(=O)(=O)N1CC=C(c2cc3c(N4CCC[C@@H](NC(=O)c5nccs5)C4)ccc(C(N)=O)c3[nH]2)CC1` [Example 13A, (R)—N-(1-(7-Carbamoyl-2-(1-(methylsulfonyl)-1,2,3,6-tetrahydropyridin-4-yl)-1H-indol-4-yl)piperidin-3-yl)thiazole-2-carboxamide], the half-maximal inhibitory concentration (IC50) is less than 100 nM.
On the same count and under the same terms, next, `NC(=O)c1ccc(-c2cccc(NC(=O)/C=C/C(=O)NC3CC3)c2)c2cc[nH]c12` [D.4.4]: 1000 to 10000 nM; `C=CC(=O)Nc1cccc(-c2ccc(C(N)=O)c3[nH]ccc23)c1` [A.5.2]: 100 to 1000 nM; `COC(=O)/C=C/C(=O)Nc1cccc(-c2ccc(C(N)=O)c3[nH]ccc23)c1` [D.1, (E)-Methyl 4-((3-(7-carbamoyl-1H-indol-4-yl)phenyl)amino)-4-oxobut-2-enoate]: less than 100 nM.
Still for that read-out and setting: next, `Cc1c(NC(=O)c2cc3c(s2)CCCC3)cccc1-c1ccc(C(N)=O)c2[nH]c(-c3cnn(C)c3)cc12` [A.10.5]: less than 100 nM; `C=C(C)C(=O)NCc1ccccc1-c1cc2c(-c3cccc(NC(=O)c4nccs4)c3C)ccc(C(N)=O)c2[nH]1` [D.1.10]: 1000 to 10000 nM.
The same measure, in the same setting: the result for `Cc1c(NC(=O)/C=C/c2cnn(C)c2)cccc1-c1ccc(C(N)=O)c2[nH]ccc12` [D.8.2] reads 100 to 1000 nM.
Take `C=CC(=O)Nc1cccc(-c2ccc(C(N)=O)c3[nH]c(CCO)cc23)c1` [Example 23, 4-(3-Acrylamidophenyl)-2-(2-hydroxyethyl)-1H-indole-7-carboxamide]: the IC50 is less than 100 nM.
Same read-out and setting: the result for `CNC(=O)/C=C/C(=O)Nc1cccc(-c2ccc(C(N)=O)c3[nH]ccc23)c1` [D.4.1] reads 1000 to 10000 nM.
The same measure, in the same setting: the result for `Cc1c(NC(=O)c2cc3c(s2)CCCC3)cccc1-c1ccc(C(N)=O)c2[nH]c(-c3cccnc3)cc12` [A.7.3] reads less than 100 nM; that for `CC#CC(=O)NCc1ccccc1-c1cc2c(-c3cccc(NC(=O)c4nccs4)c3C)ccc(C(N)=O)c2[nH]1` [D.1.1], 1000 to 10000 nM; that for `Cc1c(NC(=O)c2nccs2)cccc1-c1ccc(C(N)=O)c2[nH]c(-c3ccccc3CN)cc12` [Example 1, N-(3-(2-(2-(aminomethyl)phenyl)-7-carbamoyl-1H-indol-4-yl)-2-methylphenyl)thiazole-2-carboxamide], 100 to 1000 nM.
Take `CS(=O)(=O)N1CC=C(c2cc3c(N4CCC[C@@H](N5CCCCC5=O)C4)ccc(C(N)=O)c3[nH]2)CC1` [Example 12, (R)-2-(1-(Methylsulfonyl)-1,2,3,6-tetrahydropyridin-4-yl)-4-(2-oxo-1,3′-bipiperidin-1′-yl)-1H-indole-7-carboxamide]: the half-maximal inhibitory concentration (IC50) was in the range of 100 to 1000 nM.
Same read-out and setting: the result for `C=CC(=O)N1CCCC(c2ccc(C(N)=O)c3[nH]c(-c4cnn(C)c4)cc23)C1` (centres unmarked) [Example 26, 4-(1-Acryloylpiperidin 3-yl)-2-(1-methyl-1H-pyrazol-4-yl)-1H-indole-7-carboxamide] reads less than 100 nM; that for `Cc1c(NC(=O)c2nccs2)cccc1-c1ccc(C(N)=O)c2[nH]c(-c3ccccc3CNC(=O)COc3ccccc3)cc12` [D.1.6], 1000 to 10000 nM.
As for `Cc1c(NC(=O)/C=C/C2CC2)cccc1-c1ccc(C(N)=O)c2[nH]ccc12` [D.8.6], the IC50 lay within 100 to 1000 nM.
For the molecule `CC(=O)N1CC=C(c2cc3c(-c4cccc(NC(=O)c5ccc(C(C)(C)C)cc5)c4C)ccc(C(N)=O)c3[nH]2)CC1` [A.3.3], the IC50 is less than 100 nM.
For `Cc1c(-c2ccc(C(N)=O)c3[nH]c(C4=CCOCC4)cc23)cccc1-n1cnc2ccc(F)cc2c1=O` [A.11.2], the half-maximal inhibitory concentration (IC50) was less than 100 nM.
The same measure, in the same setting: next, `CN(C)C(=O)/C=C/C(=O)Nc1cccc(-c2ccc(C(N)=O)c3[nH]ccc23)c1` [D.4.2]: 1000 to 10000 nM.
The same measure, in the same setting: next, `C=CC(=O)N[C@H]1CC[C@H](c2ccc(C(N)=O)c3[nH]ccc23)C1` (relative stereo) [Example 11, 4-(trans-3-Acrylamidocyclopentyl)-1H-indole-7-carboxamide]: less than 100 nM.
For `C=CC(=O)Nc1cccc(-c2ccc(C(N)=O)c3[nH]c(-c4cccc(C(=O)OC)c4)cc23)c1C` [A.1.19], the 50% inhibitory concentration (IC50) was less than 100 nM.
As to `Cc1c(NC(=O)c2nccs2)cccc1-c1ccc(C(N)=O)c2[nH]c(-c3ccccc3CNC(=O)CC#N)cc12` [D.1.3], the 50% inhibitory concentration (IC50) was in the range of 100 to 1000 nM.
Regarding `C=CC(=O)Nc1cccc(-c2ccc(C(N)=O)c3[nH]c(-c4c(C)n[nH]c4C)cc23)c1C` [A.1.3], the IC50 was 100 to 1000 nM.
As for `Cc1c(NC(=O)/C=C/C(C)C)cccc1-c1ccc(C(N)=O)c2[nH]ccc12` [D.8.8], the IC50 is 100 to 1000 nM.
On the same count and under the same terms, next, `C=CC(=O)Nc1cccc(-c2ccc(C(N)=O)c3[nH]c(-c4cnn(CCN5CCOCC5)c4)cc23)c1C` [A.1.8]: less than 100 nM.
